For experiment [1], the system named is MV4-11. As to the kind of experiment: Cellular MV4-11 viability assay (CellTiter-Glo, 72 hours). The format is cell-based. The conditions noted are these: Homo sapiens. Summed up:
(§1)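 Cells plated in 96 wells and exposed to compound 72 h at 37 °C, 5% CO2, final DMSO below 0.1%, DMSO control. Viability by CellTiter-Glo luminescence, duplicate.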
In general terms: Cellular ATP, detected with luciferase, serves as a proxy for viable cell number.

In experiment [2] the target is T1, CDK2/Cyclin A (Homo sapiens, UniProt P24941).
T1 construct: purchased Invitrogen PV6290
Nature of the experiment: Enzymatic assay for CDK2 (FRET based LANCE Ultra kinase assay). The experiment is classed as biochemical. The conditions noted are these: read-out: CDK2 enzymatic activity (IC50 range). The method in brief:
(§2)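 LANCE Ultra TR-FRET: ULight-MBP peptide (68 nM) with ATP at Km, […], 60 min at 23° C. EDTA plus Eu-anti-phospho-MBP added, another 60 min, then 665/615 nm emission read. Compounds tested as 8-dose 4-fold DMSO dilutions.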
(In general: TR-FRET usually uses a lanthanide donor and a delayed reading to cut background.)

Experiment [3] deals with H460. As to the kind of experiment: Cellular H460 viability assay (CellTiter-Glo, 72 hours). The experiment is classed as cell-based. The conditions noted are these: Homo sapiens, NCI-H460. The method in brief: as §1
Experiment [4] has as its target T2, CDK5/p25 (Homo sapiens, UniProt Q00535).
T2 construct: purchased Invitrogen PR8543B
Nature of the experiment: Enzymatic assay for CDK5 (FRET based LANCE Ultra kinase assay). The conditions noted are these: read-out: CDK5 enzymatic activity (IC50 range). The format is biochemical. The method in brief:
as §2

Experiment [5] deals with HCT116. Nature of the experiment: Cellular HCT116 viability assay (CellTiter-Glo, 72 hours). The experiment is classed as cell-based. The conditions noted are these: Homo sapiens, HCT-116. The method in brief: as §1
Experiment [6] addresses T3, CDK1/Cyclin B (Homo sapiens, UniProt P06493).
T3 construct: purchased Invitrogen PR4768C
Nature of the experiment: Enzymatic assay for CDK1 (FRET based LANCE Ultra kinase assay). The experiment is classed as biochemical. The conditions noted are these: read-out: CDK1 enzymatic activity (IC50 range). Summed up:
as §2

Experiment [7] has as its target T4, CDK7/Cyclin H/MNAT1 (Homo sapiens, UniProt P50613).
T4 construct: purchased Invitrogen PR6749B
As to the kind of experiment: Enzymatic assay for CDK7 (FRET based LANCE Ultra kinase assay). The format is biochemical. The conditions noted are these: for pIC50: read-out: CDK7 enzymatic activity (IC50 range). The method in brief:
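LANCE Ultra TR-FRET kinase assay using a ULight-labeled peptide substrate and a Eu-labeled anti-phospho antibody, with ATP at its Km. Purified CDK/cyclin complex was added to compound after brief centrifugation.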

From patent US11945822B2, “Pyrazolo-triazine and/or pyrazolo-pxrimidine derivatives as selective inhibitor of cyclin dependent kinase” (QURIENT CO., LTD., priority 2018, dated 2024) come the findings set out here.

pIC50: −log10 of the molar value. Some results are limits rather than exact numbers.

The term pIC50 denotes the negative decadic logarithm of the IC50, by convention in mol/L.

T4 sequence (P50613 whole entry): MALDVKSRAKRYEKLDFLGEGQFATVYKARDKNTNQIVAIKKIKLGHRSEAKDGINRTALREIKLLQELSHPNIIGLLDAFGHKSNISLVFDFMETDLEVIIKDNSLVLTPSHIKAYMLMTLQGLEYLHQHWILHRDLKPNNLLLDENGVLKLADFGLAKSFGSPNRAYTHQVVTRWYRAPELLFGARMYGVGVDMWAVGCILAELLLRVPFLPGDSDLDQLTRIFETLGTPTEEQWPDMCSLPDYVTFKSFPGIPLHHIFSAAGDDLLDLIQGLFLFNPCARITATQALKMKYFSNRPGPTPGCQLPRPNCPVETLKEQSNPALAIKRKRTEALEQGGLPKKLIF
T4 sequence (P51946 whole entry partner): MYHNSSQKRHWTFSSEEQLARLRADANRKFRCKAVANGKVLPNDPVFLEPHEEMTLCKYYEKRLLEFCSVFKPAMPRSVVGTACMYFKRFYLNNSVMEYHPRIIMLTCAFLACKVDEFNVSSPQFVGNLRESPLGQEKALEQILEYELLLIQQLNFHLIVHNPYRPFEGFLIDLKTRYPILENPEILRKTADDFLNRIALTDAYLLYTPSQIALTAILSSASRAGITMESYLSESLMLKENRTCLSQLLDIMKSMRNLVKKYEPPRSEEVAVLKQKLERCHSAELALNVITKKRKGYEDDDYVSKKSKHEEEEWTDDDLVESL
T4 sequence (P51948 whole entry partner): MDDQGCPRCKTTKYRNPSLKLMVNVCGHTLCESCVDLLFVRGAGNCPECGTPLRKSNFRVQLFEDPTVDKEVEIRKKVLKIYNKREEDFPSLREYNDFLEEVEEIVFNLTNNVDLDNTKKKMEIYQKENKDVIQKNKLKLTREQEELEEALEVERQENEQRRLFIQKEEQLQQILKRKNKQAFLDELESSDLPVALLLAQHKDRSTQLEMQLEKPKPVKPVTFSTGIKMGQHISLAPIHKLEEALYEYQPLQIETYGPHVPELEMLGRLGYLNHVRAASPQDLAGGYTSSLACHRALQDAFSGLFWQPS
T2 sequence (Q00535 whole entry): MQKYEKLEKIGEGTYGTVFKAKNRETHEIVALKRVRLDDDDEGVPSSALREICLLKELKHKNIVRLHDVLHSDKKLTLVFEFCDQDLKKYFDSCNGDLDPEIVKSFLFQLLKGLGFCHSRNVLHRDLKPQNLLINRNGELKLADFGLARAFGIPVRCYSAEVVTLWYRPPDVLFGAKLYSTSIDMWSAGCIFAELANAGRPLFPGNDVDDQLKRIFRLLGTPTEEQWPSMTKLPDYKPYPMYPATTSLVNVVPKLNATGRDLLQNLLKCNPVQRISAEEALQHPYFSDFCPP
T2 sequence (Q15078 99-307 partner limits assumed): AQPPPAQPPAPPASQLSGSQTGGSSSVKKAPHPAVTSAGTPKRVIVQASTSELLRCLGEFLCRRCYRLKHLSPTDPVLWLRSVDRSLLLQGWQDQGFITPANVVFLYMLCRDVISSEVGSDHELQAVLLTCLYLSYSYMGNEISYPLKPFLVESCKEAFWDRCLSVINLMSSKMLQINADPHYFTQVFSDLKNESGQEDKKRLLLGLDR
T3 sequence (P06493 whole entry): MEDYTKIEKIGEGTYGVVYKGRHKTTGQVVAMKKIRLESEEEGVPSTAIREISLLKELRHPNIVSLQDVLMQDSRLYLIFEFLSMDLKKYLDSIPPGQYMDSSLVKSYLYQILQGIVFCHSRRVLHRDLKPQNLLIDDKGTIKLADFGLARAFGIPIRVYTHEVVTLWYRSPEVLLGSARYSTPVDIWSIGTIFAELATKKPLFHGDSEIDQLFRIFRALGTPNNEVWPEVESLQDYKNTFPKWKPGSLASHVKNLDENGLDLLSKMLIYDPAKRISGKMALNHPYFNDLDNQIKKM
T3 sequence (P14635 whole entry partner): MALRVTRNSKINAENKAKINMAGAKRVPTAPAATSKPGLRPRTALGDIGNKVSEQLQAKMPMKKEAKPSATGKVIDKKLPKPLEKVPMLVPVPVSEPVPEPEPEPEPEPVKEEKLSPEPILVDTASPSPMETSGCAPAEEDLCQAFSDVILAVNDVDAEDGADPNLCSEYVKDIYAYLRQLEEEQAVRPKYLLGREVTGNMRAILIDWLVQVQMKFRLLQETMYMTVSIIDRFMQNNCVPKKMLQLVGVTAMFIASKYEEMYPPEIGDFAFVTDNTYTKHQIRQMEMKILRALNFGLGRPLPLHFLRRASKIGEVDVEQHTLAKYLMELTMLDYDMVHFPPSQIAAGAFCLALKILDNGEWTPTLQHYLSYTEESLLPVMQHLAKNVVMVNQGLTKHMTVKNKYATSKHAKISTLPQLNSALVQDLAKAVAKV

Consider `Cc1cccc(C)c1CNc1nc(N2CCC(N)CC2)nc2c(C(C)C)cnn12` [Compound 235], for which the pIC50 in experiment [1] is 5.00 to 6.00; in experiment [2] it was less than 6.00; in experiment [3] it was 5.00 to 6.00; in experiment [4], 6.00 to 7.00; in experiment [5] it was 5.00 to 6.00; in experiment [6], less than 6.00. For the same compound, the negative logarithm of the IC50 (pIC50) in experiment [7] is more than 7.00. Moreover, the “CDK1/CDK7: Selectivity of CDK7 inhibition over CDK1 inhibition” value in experiment [7] is on record as “A (A=greater than 200 fold)”. The “CDK2/CDK7: Selectivity of CDK7 inhibition over CDK2 inhibition” value in experiment [7] was “B (B=less than 200 fold, but greater than 20 fold)”. For the same compound, the “CDK5/CDK7: Selectivity of CDK7 inhibition over CDK5 inhibition” value in experiment [7] is recorded as “B (B=less than 200 fold, but greater than 20 fold)”.
`CC(C)c1cnn2c(NCc3ccccc3-n3ccc(C(C)(C)O)n3)nc(NCC3CCNCC3O)nc12` (centres unmarked) [Compound 223]: the pIC50 in experiment [1] is more than 6.00; in experiment [2], less than 6.00; in experiment [3], more than 6.00; in experiment [4], less than 6.00; in experiment [5], more than 6.00; in experiment [6], less than 6.00. Besides, the negative logarithm of the IC50 (pIC50) in experiment [7] is more than 7.00. Further, the “CDK1/CDK7: Selectivity of CDK7 inhibition over CDK1 inhibition” value in experiment [7] is “A (A=greater than 200 fold)”. In experiment [7], the “CDK2/CDK7: Selectivity of CDK7 inhibition over CDK2 inhibition” value is recorded as “B (B=less than 200 fold, but greater than 20 fold)”. In experiment [7], the “CDK5/CDK7: Selectivity of CDK7 inhibition over CDK5 inhibition” value is reported as “B (B=less than 200 fold, but greater than 20 fold)”.
Take `Cc1cccc(-c2cc(CO)nn2C)c1CNc1nc(N2CCC(N)CC2)nc2c(C(C)C)cnn12` [Compound 214]: the pIC50 in experiment [1] is more than 6.00; in experiment [2], less than 6.00; in experiment [3], more than 6.00; in experiment [4], less than 6.00; in experiment [5] it was more than 6.00; in experiment [6], less than 6.00. Further, the pIC50 in experiment [7] was more than 7.00. Also, the “CDK1/CDK7: Selectivity of CDK7 inhibition over CDK1 inhibition” value in experiment [7] was “A (A=greater than 200 fold)”. The “CDK2/CDK7: Selectivity of CDK7 inhibition over CDK2 inhibition” value in experiment [7] is reported as “A (A=greater than 200 fold)”. Moreover, the “CDK5/CDK7: Selectivity of CDK7 inhibition over CDK5 inhibition” value in experiment [7] is on record as “A (A=greater than 200 fold)”.
For the compound `CC(C)c1cnn2c(NCc3ccccc3-c3ccc4ccccc4n3)cc(NCC3(O)CCNCC3)nc12` [Compound 208], the pIC50 is more than 6.00 in experiment [1]; more than 7.00 in experiment [2]; more than 6.00 in experiment [3]; 6.00 to 7.00 in experiment [4]; more than 6.00 in experiment [5]; 6.00 to 7.00 in experiment [6]. Further, the negative logarithm of the IC50 (pIC50) in experiment [7] was more than 7.00. Moreover, in experiment [7], the “CDK1/CDK7: Selectivity of CDK7 inhibition over CDK1 inhibition” value was “B (B=less than 200 fold, but greater than 20 fold)”. Further, in experiment [7], the “CDK2/CDK7: Selectivity of CDK7 inhibition over CDK2 inhibition” value is listed as “C (C=less than 20 fold)”. Besides, the “CDK5/CDK7: Selectivity of CDK7 inhibition over CDK5 inhibition” value in experiment [7] is reported as “B (B=less than 200 fold, but greater than 20 fold)”.
For the compound `CC(C)c1cnn2c(NCc3ccccc3-c3ccc4ccccc4n3)nc(NCC3(O)CCNCC3)nc12` [Compound 212], the pIC50 in experiment [1] was 5.00 to 6.00; in experiment [2] it was less than 6.00; in experiment [3] it was 5.00 to 6.00; in experiment [4] it was less than 6.00; in experiment [5] it was 5.00 to 6.00; in experiment [6], less than 6.00. In addition, in experiment [7], the pIC50 was more than 7.00. In addition, the “CDK1/CDK7: Selectivity of CDK7 inhibition over CDK1 inhibition” value in experiment [7] was “A (A=greater than 200 fold)”. Also, the “CDK2/CDK7: Selectivity of CDK7 inhibition over CDK2 inhibition” value in experiment [7] was “B (B=less than 200 fold, but greater than 20 fold)”. Moreover, the “CDK5/CDK7: Selectivity of CDK7 inhibition over CDK5 inhibition” value in experiment [7] is “B (B=less than 200 fold, but greater than 20 fold)”.
As for `CNC(=O)c1cc2cn(-c3ccccc3CNc3nc(N4CCC(N)CC4)nc4c(C(C)C)cnn34)nc2cc1F` [Compound 157], the negative-log IC50 (pIC50) in experiment [1] is more than 6.00; in experiment [2], 6.00 to 7.00; in experiment [3], more than 6.00; in experiment [4], 6.00 to 7.00; in experiment [5] it was more than 6.00; in experiment [6], less than 6.00. Further, the pIC50 in experiment [7] is more than 7.00. Also, the “CDK1/CDK7: Selectivity of CDK7 inhibition over CDK1 inhibition” value in experiment [7] was “A (A=greater than 200 fold)”. Besides, the “CDK2/CDK7: Selectivity of CDK7 inhibition over CDK2 inhibition” value in experiment [7] is “A (A=greater than 200 fold)”. Further, the “CDK5/CDK7: Selectivity of CDK7 inhibition over CDK5 inhibition” value in experiment [7] is “B (B=less than 200 fold, but greater than 20 fold)”.
Regarding `CC(C)c1cnn2c(NCc3ccccc3-c3ccc4ccccc4n3)nc(NCC3CCNCC3O)nc12` (centres unmarked) [Compound 222], the pIC50 in experiment [1] is more than 6.00; in experiment [2], 6.00 to 7.00; in experiment [3] it was more than 6.00; in experiment [4], 6.00 to 7.00; in experiment [5] it was more than 6.00; in experiment [6], less than 6.00. Besides, the negative logarithm of the IC50 (pIC50) in experiment [7] was more than 7.00. For the same compound, in experiment [7], the “CDK1/CDK7: Selectivity of CDK7 inhibition over CDK1 inhibition” value was “A (A=greater than 200 fold)”. The “CDK2/CDK7: Selectivity of CDK7 inhibition over CDK2 inhibition” value in experiment [7] is on record as “A (A=greater than 200 fold)”. The “CDK5/CDK7: Selectivity of CDK7 inhibition over CDK5 inhibition” value in experiment [7] was “A (A=greater than 200 fold)”.
With `CC(C)c1cnn2c(NCc3ccccc3-n3cc4cc(C(=O)NC5CC5)ccc4n3)nc(N3CCC(N)CC3)nc12` [Compound 161], the negative-log IC50 (pIC50) is more than 6.00 in experiment [1]; 6.00 to 7.00 in experiment [2]; more than 6.00 in experiment [3]; 6.00 to 7.00 in experiment [4]; more than 6.00 in experiment [5]; 6.00 to 7.00 in experiment [6]. In experiment [7], the negative logarithm of the IC50 (pIC50) is more than 7.00. In addition, in experiment [7], the “CDK1/CDK7: Selectivity of CDK7 inhibition over CDK1 inhibition” value is “A (A=greater than 200 fold)”. Moreover, the “CDK2/CDK7: Selectivity of CDK7 inhibition over CDK2 inhibition” value in experiment [7] is on record as “B (B=less than 200 fold, but greater than 20 fold)”. Also, the “CDK5/CDK7: Selectivity of CDK7 inhibition over CDK5 inhibition” value in experiment [7] is given as “B (B=less than 200 fold, but greater than 20 fold)”.
As to `CC(C)c1cnn2c(NCc3c(Cl)cccc3-n3ccc(C(C)(C)O)n3)nc(N3CCC(CN)CC3)nc12` [Compound 217], the negative logarithm of the IC50 (pIC50) in experiment [1] was more than 6.00; in experiment [2], less than 6.00; in experiment [3], more than 6.00; in experiment [4] it was less than 6.00; in experiment [5] it was more than 6.00; in experiment [6] it was less than 6.00. In addition, the pIC50 in experiment [7] is more than 7.00. Moreover, in experiment [7], the “CDK1/CDK7: Selectivity of CDK7 inhibition over CDK1 inhibition” value is recorded as “A (A=greater than 200 fold)”. Also, the “CDK2/CDK7: Selectivity of CDK7 inhibition over CDK2 inhibition” value in experiment [7] is recorded as “A (A=greater than 200 fold)”. Besides, the “CDK5/CDK7: Selectivity of CDK7 inhibition over CDK5 inhibition” value in experiment [7] is recorded as “A (A=greater than 200 fold)”.
Consider `CC(C)c1cnn2c(NCc3ccccc3-c3ccc4ccccc4n3)nc(N3CCC(CN)CC3)nc12` [Compound 216], for which the pIC50 was more than 6.00 in experiment [1]; less than 6.00 in experiment [2]; more than 6.00 in experiment [3]; less than 6.00 in experiment [4]; more than 6.00 in experiment [5]; less than 6.00 in experiment [6]. Moreover, in experiment [7], the pIC50 was more than 7.00. In addition, the “CDK1/CDK7: Selectivity of CDK7 inhibition over CDK1 inhibition” value in experiment [7] was “A (A=greater than 200 fold)”. The “CDK2/CDK7: Selectivity of CDK7 inhibition over CDK2 inhibition” value in experiment [7] was “A (A=greater than 200 fold)”. In experiment [7], the “CDK5/CDK7: Selectivity of CDK7 inhibition over CDK5 inhibition” value is “A (A=greater than 200 fold)”.
With `CC(C)c1cnn2c(NCc3ccccc3-c3ccc4ccccc4n3)nc(OCC3CCNCC3)nc12` [Compound 215], the negative logarithm of the IC50 (pIC50) in experiment [1] was 5.00 to 6.00; in experiment [2], less than 6.00; in experiment [3], more than 6.00; in experiment [4], less than 6.00; in experiment [5], 5.00 to 6.00; in experiment [6], less than 6.00. Besides, the pIC50 in experiment [7] was more than 7.00. In experiment [7], the “CDK1/CDK7: Selectivity of CDK7 inhibition over CDK1 inhibition” value is “A (A=greater than 200 fold)”. In experiment [7], the “CDK2/CDK7: Selectivity of CDK7 inhibition over CDK2 inhibition” value was “A (A=greater than 200 fold)”. Besides, the “CDK5/CDK7: Selectivity of CDK7 inhibition over CDK5 inhibition” value in experiment [7] is reported as “A (A=greater than 200 fold)”.
